Assay results from ChEMBL document CHEMBL1138430, “Novel tetrahydroisoquinolines are histamine H3 antagonists and serotonin reuptake inhibitors” (Bioorg Med Chem Lett, 2007).
Activity calls are given as the source filed them. The rule behind the calls is not given here.

Legend:
[1] = target: Delta-type opioid receptor (Homo sapiens) (UniProt P41143); assay: Binding affinity at DOP receptor at 1 uM
Homo sapiens [2] = species on record: Homo sapiens; assay: Binding affinity at somatostatin receptor at 1 uM
[3] = target: T1, Neuromedin-K receptor (Homo sapiens) (UniProt P29371); assay: Binding affinity at NK3 receptor at 1 uM
T1 sequence (whole entry): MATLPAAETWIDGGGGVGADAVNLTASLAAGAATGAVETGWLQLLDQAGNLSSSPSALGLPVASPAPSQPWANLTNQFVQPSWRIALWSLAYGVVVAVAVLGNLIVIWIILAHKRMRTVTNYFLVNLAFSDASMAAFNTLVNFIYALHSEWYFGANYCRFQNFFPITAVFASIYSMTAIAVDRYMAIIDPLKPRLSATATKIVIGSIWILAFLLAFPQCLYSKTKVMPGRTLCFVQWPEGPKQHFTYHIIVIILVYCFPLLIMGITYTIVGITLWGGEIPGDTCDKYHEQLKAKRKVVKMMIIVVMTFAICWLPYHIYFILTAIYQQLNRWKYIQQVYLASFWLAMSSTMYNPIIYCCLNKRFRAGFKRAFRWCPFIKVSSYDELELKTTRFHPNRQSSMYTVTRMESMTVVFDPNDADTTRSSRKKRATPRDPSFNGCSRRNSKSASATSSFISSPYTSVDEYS

[4] = target: 5-hydroxytryptamine receptor 2A (Homo sapiens) (UniProt P28223); assay: Binding affinity at 5HT2A receptor at 1 uM
Sequence of 5-hydroxytryptamine receptor 2A (Homo sapiens) (P28223 whole entry): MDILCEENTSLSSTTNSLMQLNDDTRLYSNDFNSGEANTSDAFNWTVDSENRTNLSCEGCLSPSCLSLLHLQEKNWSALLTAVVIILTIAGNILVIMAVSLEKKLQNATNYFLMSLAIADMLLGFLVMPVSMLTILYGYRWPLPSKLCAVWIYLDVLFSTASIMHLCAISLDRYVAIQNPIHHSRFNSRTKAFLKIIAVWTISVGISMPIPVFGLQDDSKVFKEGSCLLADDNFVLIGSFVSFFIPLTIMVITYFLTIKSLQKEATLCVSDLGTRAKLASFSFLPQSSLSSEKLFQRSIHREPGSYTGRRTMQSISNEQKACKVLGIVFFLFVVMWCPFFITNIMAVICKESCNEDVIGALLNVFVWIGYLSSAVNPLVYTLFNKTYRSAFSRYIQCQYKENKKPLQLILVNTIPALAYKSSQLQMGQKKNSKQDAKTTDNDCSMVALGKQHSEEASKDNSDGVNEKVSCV

[5] = target: T2, B2 bradykinin receptor (Homo sapiens) (UniProt P30411); assay: Binding affinity at bradykinin B2 receptor at 1 uM
T2 sequence (whole entry): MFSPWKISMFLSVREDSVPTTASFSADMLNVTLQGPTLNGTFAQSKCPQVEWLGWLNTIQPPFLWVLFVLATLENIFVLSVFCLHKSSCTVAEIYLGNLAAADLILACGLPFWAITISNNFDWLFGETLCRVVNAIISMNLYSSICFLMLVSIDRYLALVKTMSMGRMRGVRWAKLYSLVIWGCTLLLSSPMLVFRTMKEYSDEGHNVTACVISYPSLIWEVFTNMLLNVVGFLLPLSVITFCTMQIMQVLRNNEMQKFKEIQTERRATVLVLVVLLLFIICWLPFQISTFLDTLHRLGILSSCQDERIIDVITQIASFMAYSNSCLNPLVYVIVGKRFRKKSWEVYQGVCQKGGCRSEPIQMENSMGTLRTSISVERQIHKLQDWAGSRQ

[6] = target: T3, Alpha-1A adrenergic receptor (Homo sapiens) (UniProt P35348); assay: Binding affinity at adrenergic alpha-1 receptor at 1 uM
T3 sequence (whole entry): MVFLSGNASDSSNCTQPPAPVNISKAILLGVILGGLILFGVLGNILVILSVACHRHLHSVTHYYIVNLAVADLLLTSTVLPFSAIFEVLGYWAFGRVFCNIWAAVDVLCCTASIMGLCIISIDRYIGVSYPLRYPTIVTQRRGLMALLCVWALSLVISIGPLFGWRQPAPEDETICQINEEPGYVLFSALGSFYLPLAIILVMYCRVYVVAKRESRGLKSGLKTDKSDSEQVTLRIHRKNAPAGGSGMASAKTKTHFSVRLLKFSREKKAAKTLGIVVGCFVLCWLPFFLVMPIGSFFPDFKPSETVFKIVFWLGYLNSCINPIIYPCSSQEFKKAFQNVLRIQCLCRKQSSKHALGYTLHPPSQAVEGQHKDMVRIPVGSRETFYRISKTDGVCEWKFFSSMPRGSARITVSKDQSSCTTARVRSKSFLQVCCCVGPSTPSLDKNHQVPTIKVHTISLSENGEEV

[7] = target: T4, Type-1 angiotensin II receptor (Homo sapiens) (UniProt P30556); assay: Binding affinity at AT1 receptor at 1 uM
T4 sequence (whole entry): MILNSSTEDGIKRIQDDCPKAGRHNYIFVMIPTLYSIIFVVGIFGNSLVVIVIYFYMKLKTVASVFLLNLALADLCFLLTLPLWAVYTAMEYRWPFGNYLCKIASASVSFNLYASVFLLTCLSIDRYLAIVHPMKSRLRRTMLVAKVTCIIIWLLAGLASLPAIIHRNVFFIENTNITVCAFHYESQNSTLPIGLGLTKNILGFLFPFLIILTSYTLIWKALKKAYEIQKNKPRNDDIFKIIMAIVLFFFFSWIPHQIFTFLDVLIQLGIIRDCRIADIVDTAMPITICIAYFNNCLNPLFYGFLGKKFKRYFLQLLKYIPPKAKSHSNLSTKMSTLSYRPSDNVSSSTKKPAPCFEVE

Homo sapiens [8] = species on record: Homo sapiens; assay: Binding affinity for chloride channel at 1 uM
[9] = target: Vasopressin V1a receptor (Homo sapiens) (UniProt P37288); assay: Binding affinity at vasopressin V1a receptor at 1 uM
Sequence of Vasopressin V1a receptor (Homo sapiens) (P37288 whole entry, looked up): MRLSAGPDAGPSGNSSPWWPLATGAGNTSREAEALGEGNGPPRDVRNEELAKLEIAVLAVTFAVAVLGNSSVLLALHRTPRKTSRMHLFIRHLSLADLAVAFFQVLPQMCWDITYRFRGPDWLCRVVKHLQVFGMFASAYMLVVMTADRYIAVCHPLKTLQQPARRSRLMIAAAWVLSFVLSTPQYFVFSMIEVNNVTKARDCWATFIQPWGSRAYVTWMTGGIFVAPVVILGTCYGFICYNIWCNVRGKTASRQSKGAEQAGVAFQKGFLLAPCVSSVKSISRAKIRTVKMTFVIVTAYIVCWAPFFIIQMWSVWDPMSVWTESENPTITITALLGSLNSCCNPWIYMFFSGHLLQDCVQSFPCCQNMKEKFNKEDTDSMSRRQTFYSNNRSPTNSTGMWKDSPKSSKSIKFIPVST

[10] = target: 5-hydroxytryptamine receptor 6 (Homo sapiens) (UniProt P50406); assay: Binding affinity at 5HT6 receptor at 1 uM
Sequence of 5-hydroxytryptamine receptor 6 (Homo sapiens) (P50406 whole entry): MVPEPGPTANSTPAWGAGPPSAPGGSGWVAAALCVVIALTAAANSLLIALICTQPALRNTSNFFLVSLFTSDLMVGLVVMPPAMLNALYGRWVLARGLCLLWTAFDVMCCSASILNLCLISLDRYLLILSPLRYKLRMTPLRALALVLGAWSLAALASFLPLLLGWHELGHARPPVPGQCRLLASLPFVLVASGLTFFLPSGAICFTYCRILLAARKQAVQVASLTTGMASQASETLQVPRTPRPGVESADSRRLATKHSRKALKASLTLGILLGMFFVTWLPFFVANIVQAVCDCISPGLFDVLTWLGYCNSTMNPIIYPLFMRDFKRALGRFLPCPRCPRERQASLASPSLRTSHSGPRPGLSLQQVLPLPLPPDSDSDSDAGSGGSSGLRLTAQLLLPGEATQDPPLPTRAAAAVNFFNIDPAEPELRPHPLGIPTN

[11] = target: T5, Muscarinic acetylcholine receptor M2 (Homo sapiens) (UniProt P08172); assay: Binding affinity at muscarinic M2 receptor at 1 uM
T5 sequence (whole entry): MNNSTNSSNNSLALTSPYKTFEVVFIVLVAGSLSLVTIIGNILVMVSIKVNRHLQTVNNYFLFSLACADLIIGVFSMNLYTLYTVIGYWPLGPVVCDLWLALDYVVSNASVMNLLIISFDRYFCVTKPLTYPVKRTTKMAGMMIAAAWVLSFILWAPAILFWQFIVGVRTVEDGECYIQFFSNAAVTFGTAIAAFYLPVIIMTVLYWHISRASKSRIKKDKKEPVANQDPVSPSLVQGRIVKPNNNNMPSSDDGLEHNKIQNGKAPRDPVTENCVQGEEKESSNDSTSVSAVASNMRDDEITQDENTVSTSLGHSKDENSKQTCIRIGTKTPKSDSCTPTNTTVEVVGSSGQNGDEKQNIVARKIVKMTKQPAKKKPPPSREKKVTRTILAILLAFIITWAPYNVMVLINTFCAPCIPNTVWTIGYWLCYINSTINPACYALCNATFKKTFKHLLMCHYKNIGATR

[12] = target: T6, Cholecystokinin receptor type A (Homo sapiens) (UniProt P32238); assay: Binding affinity at CCKA receptor at 1 uM
T6 sequence (whole entry): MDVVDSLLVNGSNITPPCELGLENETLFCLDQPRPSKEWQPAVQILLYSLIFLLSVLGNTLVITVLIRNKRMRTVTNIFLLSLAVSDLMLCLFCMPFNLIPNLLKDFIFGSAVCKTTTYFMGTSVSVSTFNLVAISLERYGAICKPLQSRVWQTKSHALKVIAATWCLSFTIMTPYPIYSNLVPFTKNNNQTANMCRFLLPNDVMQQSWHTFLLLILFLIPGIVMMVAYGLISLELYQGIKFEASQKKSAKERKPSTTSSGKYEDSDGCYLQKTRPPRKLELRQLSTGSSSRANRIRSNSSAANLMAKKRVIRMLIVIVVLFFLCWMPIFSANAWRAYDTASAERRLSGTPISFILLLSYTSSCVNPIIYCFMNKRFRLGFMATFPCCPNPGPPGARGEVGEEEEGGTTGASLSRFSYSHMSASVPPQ

Sequence of Delta-type opioid receptor (Homo sapiens) (P41143 whole entry): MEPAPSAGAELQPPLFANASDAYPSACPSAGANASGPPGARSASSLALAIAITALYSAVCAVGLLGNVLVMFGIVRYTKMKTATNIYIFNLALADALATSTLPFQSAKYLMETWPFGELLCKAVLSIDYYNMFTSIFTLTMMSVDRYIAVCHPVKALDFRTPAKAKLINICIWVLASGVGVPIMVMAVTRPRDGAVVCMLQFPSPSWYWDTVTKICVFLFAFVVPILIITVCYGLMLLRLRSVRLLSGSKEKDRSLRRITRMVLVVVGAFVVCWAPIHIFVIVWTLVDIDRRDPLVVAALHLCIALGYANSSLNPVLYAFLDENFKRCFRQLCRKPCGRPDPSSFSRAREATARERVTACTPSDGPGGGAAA

Row | Activity [1] | Activity (Homo sapiens [2]) | Activity [3] | Activity [4] | Activity [5] | Activity [6] | Activity [7] | Activity (Homo sapiens [8]) | Activity [9] | Activity [10] | Activity [11] | Activity [12] | SMILES
1 | inactive | inactive | inactive | inactive | inactive | inactive | inactive | inactive | inactive | inactive | inactive | inactive | COc1ccc([C@@H]2CN(C)Cc3cc(OCCCN4CCOC[C@@H]4C)ccc32)cc1
2 | inactive | inactive | inactive | inactive | inactive | inactive | inactive | inactive | inactive | inactive | inactive | inactive | CSc1ccc(C2CN(C)Cc3cc(OCCCN4CCOCC4)ccc32)cc1 (racemic)
3 | inactive | inactive | inactive | inactive | inactive | inactive | inactive | inactive | inactive | inactive | inactive | inactive | CSc1ccc(C2CN(C)Cc3cc(OCCCN4CCC(F)CC4)ccc32)cc1 (racemic)
